Tests used:
JAK3 = target: T1, JAK3 (Homo sapiens, UniProt P52333); experiment: Competition binding assay, JAK3; settings: read-out: Binding Assay: JAK3 (active_KD, ENZ)
T1 construct: made in house
Excerpt: (§1) Competition Binding Assay to Determine Binding Constants (Kd) of the Compounds Against JAK Kinases
(§2) Competition binding assays used herein were developed, validated and performed as described in Fabian et al., Nature Biotechnology 2005, 23,329-336. Kinases were produced as fusions to T7 phage (See, Fabian et al. or WO04/015142) or alternatively, the kinases were expressed in HEK-293 cells and subsequently tagged with DNA for PCR detection (See, WO08/005310). For the binding assays, streptavidin-coated magnetic beads were treated with biotinylated affinity ligands for 30 min at rt to generate affinity resins. The liganded beads were blocked with excess biotin and washed with blocking buffer (SeaBlock (Pierce), 1% BSA, 0.05% Tween 20, 1 mM DTT) to remove unbound ligand and to reduce non-specific binding. […] Test compounds were prepared as 100× stocks in DMSO and rapidly diluted into the aqueous environment. DMSO was added to control assays lacking a test compound. Primary screen interactions were performed in polypropylene 384-well plates in a final volume of 34 μL, while Kd determinations were performed in polystyrene 96-well plates in a final volume of 135 μL. […] The kinase concentration in the eluates was measured by quantitative PCR. Each kinase was tested individually against each compound. Kds were determined using eleven serial threefold dilutions. A selectivity score, which is a quantitative measure of selectivity of a compound against a panel of enzymes, may be calculated for a compound by dividing the number of enzymes for which a compound meets a set criteria, (for example, a binding constant of 100 nM or less), by the total number of enzymes tested.

[1] = test system: csTF-1 cells (GM-CSFR/JAK2/STAT5 pathway); experiment: csTF-1 cell-based reporter assay; design: species or system human; settings: Homo sapiens; GM-CSF at 2 ng/mL, 4 hours; read-out: Cell Assay: CS0017: CS TF-1 reporter assay: IC50
Method: csTF-1 Cell-based Reporter Assay
csTF-1 cells are derived from the human erythroleukemia cell line that is growth dependent on GM-CSF and has an intact GM-CSFR/JAK2/STAT5 pathway. The cell line contains stably integrated beta-lactamase reporter gene under the control of the […] (irf 1) response element recognized by the activated transcription factor STATS. csTF-1 cells (Invitrogen K1219) were washed with assay media (97% OPTIMEM/0.5% dialyzed FBS/0.1 mM NEAA/1 mM Na pyr/P/S) and seeded in the same media at 5×10^5 cell/mL in T150 flask. After 16 hour incubation, cells were seeded at 2×10^5 cell/well in 50 μl volume, into Costar, clear bottom, 96-well assay plates. Serial dilutions of compounds were added to the plates with final DMSO concentration at 0.5% and GM-CSF at 2 ng/mL and the plates were then incubated at […] and 5% CO2 for 4 hours. The plates were brought to room temperature before adding Substrate Mixture according to manufacturer's protocol (Invitrogen, Catalog #K1085). The assay plates containing the substrate mixture were incubated in the dark at room temperature for 2 hours. Blue and green fluorescence was measured with excitation at 409 nm and emission at 460 nm (for blue) and excitation at 409 nm and emission at 530 nm (for green) using Spectra Max Gemini EM.

AuroraB = target: T2, AuroraB (Homo sapiens, UniProt Q96GD4); experiment: Competition binding assay, Aurora B
T2 construct: made in house
T2 sequence (Q96GD4 whole entry): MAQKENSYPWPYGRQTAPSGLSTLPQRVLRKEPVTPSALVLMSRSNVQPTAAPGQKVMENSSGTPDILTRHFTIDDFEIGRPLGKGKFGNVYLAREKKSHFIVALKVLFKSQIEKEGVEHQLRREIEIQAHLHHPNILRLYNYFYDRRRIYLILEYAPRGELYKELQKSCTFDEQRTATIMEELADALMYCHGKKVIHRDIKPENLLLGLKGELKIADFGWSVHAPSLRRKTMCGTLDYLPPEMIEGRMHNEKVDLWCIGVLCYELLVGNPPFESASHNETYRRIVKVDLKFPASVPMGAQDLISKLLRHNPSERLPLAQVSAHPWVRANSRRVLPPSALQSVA
Excerpt: Methods for determining binding constant against Aurora B kinase are known to one of skill in the art. Exemplary methods are described in U.S. provisional application No. 61/294,413, and Fabian et al., Nature Biotechnology 2005, 23,329-336.
as §2

JAK2 = target: T3, JAK2 (Homo sapiens, UniProt O60674); experiment: Competition binding assay, JAK2; settings: read-out: Binding Assay: JAK2 (active_KD)
T3 construct: made in house
T3 sequence (O60674 849-1124 limits assumed): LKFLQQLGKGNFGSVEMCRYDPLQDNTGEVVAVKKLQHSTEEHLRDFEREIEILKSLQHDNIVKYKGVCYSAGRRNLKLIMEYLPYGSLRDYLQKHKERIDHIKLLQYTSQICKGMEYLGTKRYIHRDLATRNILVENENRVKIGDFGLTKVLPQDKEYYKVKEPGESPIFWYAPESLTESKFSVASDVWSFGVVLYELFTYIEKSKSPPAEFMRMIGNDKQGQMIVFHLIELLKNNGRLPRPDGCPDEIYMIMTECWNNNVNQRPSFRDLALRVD
Excerpt: as §1, §2

T1 sequence (P52333 822-1111 limits assumed): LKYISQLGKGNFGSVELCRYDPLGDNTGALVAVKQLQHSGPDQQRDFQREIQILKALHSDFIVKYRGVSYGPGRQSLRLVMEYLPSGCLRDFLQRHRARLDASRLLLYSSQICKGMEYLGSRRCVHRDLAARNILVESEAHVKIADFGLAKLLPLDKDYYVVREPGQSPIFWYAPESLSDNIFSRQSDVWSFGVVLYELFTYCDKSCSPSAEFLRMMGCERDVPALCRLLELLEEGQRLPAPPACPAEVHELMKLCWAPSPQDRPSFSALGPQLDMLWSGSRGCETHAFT

SMILES | Kd (JAK3) | IC50 [1] | Kd (AuroraB) | Kd (JAK2)
O=C(c1cccc(F)c1)c1nc(Nc2cc[nH]n2)c2ccccc2n1 [Example 2, (4-(1H-pyrazol-3-ylamino)quinazolin-2-yl)(3-fluorophenyl)methanone] | > 100 nM | > 500 nM | > 200 nM | > 10 nM
COc1ccccc1C(=O)c1nc(Nc2cc[nH]n2)c2ccccc2n1 [Example 5, (4-(1H-pyrazol-3-ylamino)quinazolin-2-yl)(2-methoxyphenyl)methanone] | > 100 nM | 100 to 500 nM | > 200 nM | 1 to 10 nM
Cc1cc(Nc2nc(C(=O)c3ccc(F)cc3)nc3cc(C(F)(F)F)ccc23)n[nH]1 [Example 17, (4-fluorophenyl)(4-(5-methyl-1H-pyrazol-3-ylamino)-7-(trifluoromethyl)quinazolin-2-yl)methanone] | > 100 nM | 100 to 500 nM | > 200 nM | > 10 nM
Cc1cc(Nc2nc(C(=O)c3ccc(F)cc3)nc3cc(F)ccc23)n[nH]1 [Example 19, (7-fluoro-4-(5-methyl-1H-pyrazol-3-ylamino)quinazolin-2-yl)(4-fluorophenyl)methanone] | 10 to 100 nM | ≤ 100 nM | > 200 nM | 1 to 10 nM
Cc1cc(Nc2nc(C(F)(F)c3ccc(F)cc3)nc3cc(F)ccc23)n[nH]1 [Example 20, 2-(difluoro(4-fluorophenyl)methyl)-7-fluoro-N-(5-methyl-1H-pyrazol-3-yl)quinazolin-4-amine] | 10 to 100 nM | ≤ 100 nM | > 200 nM | ≤ 1 nM
Cc1ccc2c(Nc3cc(C)[nH]n3)nc(C(=O)c3ccc(F)cc3)nc2c1 [Example 24, (4-fluorophenyl)(7-methyl-4-(5-methyl-1H-pyrazol-3-ylamino)quinazolin-2-yl)methanone] | 10 to 100 nM | ≤ 100 nM | > 200 nM | ≤ 1 nM
COc1ccc2c(Nc3cc[nH]n3)nc(C(=O)c3ccc(F)cc3)nc2c1 [Example 28, (4-(1H-pyrazol-3-ylamino)-7-methoxyquinazolin-2-yl)(4-fluorophenyl)methanone] | > 100 nM | 100 to 500 nM | > 200 nM | 1 to 10 nM
COc1ccc2c(Nc3cc(C)[nH]n3)nc(C(=O)c3ccc(F)cc3)nc2c1 [Example 30, (4-fluorophenyl)(7-methoxy-4-(5-methyl-1H-pyrazol-3-ylamino)quinazolin-2-yl)methanone] | 10 to 100 nM | ≤ 100 nM | > 200 nM | 1 to 10 nM
COc1ccc2c(Nc3cc(C)[nH]n3)nc(C(F)(F)c3ccc(F)cc3)nc2c1 [Example 32, 2-(difluoro(4-fluorophenyl)methyl)-7-methoxy-N-(5-methyl-1H-pyrazol-3-yl)quinazolin-4-amine] | 10 to 100 nM | ≤ 100 nM | > 200 nM | ≤ 1 nM
COc1ccc2c(Nc3cc[nH]n3)nc(C(F)(F)c3ccc(F)cc3)nc2c1 [Example 33, 2-(difluoro(4-fluorophenyl)methyl)-7-methoxy-N-(1H-pyrazol-3-yl)quinazolin-4-amine] | > 100 nM | 100 to 500 nM | 50 to 200 nM | 1 to 10 nM
Cc1cc(Nc2nc(C(F)(F)c3ccc(F)cc3)nc3c(F)cccc23)n[nH]1 [Example 34, 2-(difluoro(4-fluorophenyl)methyl)-8-fluoro-N-(5-methyl-1H-pyrazol-3-yl)quinazolin-4-amine] | 10 to 100 nM | ≤ 100 nM | > 200 nM | ≤ 1 nM
COc1cccc2c(Nc3cc[nH]n3)nc(C(=O)c3ccc(F)cc3)nc12 [Example 35, (4-(1H-pyrazol-3-ylamino)-8-methoxyquinazolin-2-yl)(4-fluorophenyl)methanone] | > 100 nM | > 500 nM | 50 to 200 nM | > 10 nM

Second part, the compound after the results:

Kd (JAK3) | IC50 [1] | Kd (AuroraB) | Kd (JAK2) | SMILES
≤ 10 nM | > 500 nM | > 200 nM | ≤ 1 nM | Cc1cc(Nc2nc(C(O)c3ccc(F)cc3)nc3cc(OCC(=O)O)ccc23)n[nH]1 (racemic) [Example 44, (R,S)-2-(2-((4-fluorophenyl)(hydroxy)methyl)-4-(5-methyl-1H-pyrazol-3-ylamino)quinazolin-7-yloxy)acetic acid]
10 to 100 nM | 100 to 500 nM | > 200 nM | ≤ 1 nM | COC(=O)NC(c1ccc(F)cc1)c1nc(Nc2cc(C)[nH]n2)c2ccccc2n1 (racemic) [Example 45, (R,S)-methyl (4-fluorophenyl)(4-(5-methyl-4H-pyrazol-3-ylamino)quinazolin-2-yl) methylcarbamate]
10 to 100 nM | 100 to 500 nM | > 200 nM | ≤ 1 nM | Cc1cc(Nc2nc(C(O)c3ccc(F)cc3)nc3c(C)cccc23)n[nH]1 (racemic) [Example 46, (R,S)-(4-fluorophenyl)(8-methyl-4-(5-methyl-1H-pyrazol-3-ylamino)quinazolin-2-yl)methanol]
10 to 100 nM | 100 to 500 nM | > 200 nM | ≤ 1 nM | Cc1cc(Nc2nc(C(O)c3ccc(F)cc3)nc3cc(F)ccc23)n[nH]1 (racemic) [Example 47, (R,S)-(7-fluoro-4-(5-methyl-1H-pyrazol-3-ylamino)quinazolin-2-yl)(4-fluorophenyl)methanol]
10 to 100 nM | ≤ 100 nM | > 200 nM | 1 to 10 nM | Cc1cc(Nc2nc(C(O)c3ccc(F)cc3)nc3cc(Cl)ccc23)n[nH]1 (racemic) [Example 52, (R,S) (7-chloro-4-(5-methyl-1H-pyrazol-3-ylamino)quinazolin-2-yl)(4-fluorophenyl)methanol]
10 to 100 nM | 100 to 500 nM | > 200 nM | 1 to 10 nM | Cc1cc(Nc2nc(C(=O)c3cccc(F)c3)nc3ccccc23)n[nH]1 [Example 1, (3-fluorophenyl)(4-(5-methyl-1H-pyrazol-3-ylamino)quinazolin-2-yl)methanone]
10 to 100 nM | ≤ 100 nM | > 200 nM | ≤ 1 nM | Cc1cc(Nc2nc(C(=O)c3ccc(F)cc3)nc3ccccc23)n[nH]1 [Example 3, (4-fluorophenyl)(4-(5-methyl-1H-pyrazol-3-ylamino)quinazolin-2-yl)methanone]
10 to 100 nM | ≤ 100 nM | > 200 nM | ≤ 1 nM | O=C(c1ccc(F)cc1)c1nc(Nc2cc[nH]n2)c2ccccc2n1 [Example 4, (4-(1H-pyrazol-3-ylamino)quinazolin-2-yl)(4-fluorophenyl)methanone]
≤ 10 nM | ≤ 100 nM | > 200 nM | ≤ 1 nM | Cc1cc(Nc2nc(C(F)(F)c3ccc(F)cc3)nc3ccccc23)n[nH]1 [Example 8, 2-(difluoro(4-fluorophenyl)methyl)-N-(5-methyl-1H-pyrazol-3-yl)quinazolin-4-amine]
10 to 100 nM | ≤ 100 nM | > 200 nM | ≤ 1 nM | Fc1ccc(C(F)(F)c2nc(Nc3cc[nH]n3)c3ccccc3n2)cc1 [Example 9, 2-(difluoro(4-fluorophenyl)methyl)-N-(1H-pyrazol-3-yl)quinazolin-4-amine]
≤ 10 nM | ≤ 100 nM | > 200 nM | 1 to 10 nM | Fc1ccc(C(F)(F)c2nc(Nc3cc(C4CC4)[nH]n3)c3ccccc3n2)cc1 [Example 10, N-(5-cyclopropyl-1H-pyrazol-3-yl)-2-(difluoro(4-fluorophenyl)methyl)quinazolin-4-amine]
≤ 10 nM | ≤ 100 nM | > 200 nM | ≤ 1 nM | Cc1ccc2c(Nc3cc(C)[nH]n3)nc(C(F)(F)c3ccc(F)cc3)nc2c1 [Example 26, 2-(difluoro(4-fluorophenyl)methyl)-7-methyl-N-(5-methyl-1H-pyrazol-3-yl)quinazolin-4-amine]

From US8349851B2, “JAK kinase modulating compounds and methods of use thereof” (Ambit Biosciences Corp., priority 2009, dated 2013)
